# From patent publication US20240335444A1, “MODULATORS OF BCL6 PROTEOLYSIS AND ASSOCIATED METHODS OF USE” (Arvinas Operations, Inc., priority 2023, published 2024)
# Columns and labels:
# LY3148 = assay: PDX model of Burkitt's lymphoma (LY3148); assay type: in vivo, NOD/SCID or BALB/c Nude Mice; conditions: 30 mg/kg PO QD×21
# Protocol: HuPrime® Lymphoma Xenograft Models in NOD/SCID or BALB/c Nude Mice, 4/group, were dosed orally (per os, PO) daily for 21 days (QD×21) and tumor measurements were acquired twice per week. […] Data points represent the mean per group and error bars the standard error of the mean.
# OCI-Ly1 = assay: Tumor growth of DLBCL cell line derived xenograft model OCI-Ly1; assay type: in vivo, mice; conditions: OCI-Ly1 xenograft, dosing dependent
# Protocol: Mice bearing subcutaneous tumors were orally (po) administered vehicle or Compound A at 1, 3, 10, or 30 mg/kg daily for 22 days (qd×22). Dosing began with tumors at an average of 140 mm^3. […] Statistical analyses were performed using 2-way ANOVA: p<0.0001 (****). Error bars represent standard error of the mean (±SEM).
# (§1) Mice bearing subcutaneous tumors were orally (po) administered vehicle or Compound A at 1, 3, or 10 mg/kg bi-daily for 23 days (bid×23). Dosing began with tumors at an average of 170 mm^3. […] FIG. 7C depicts tumor lysate BCL6 protein levels 16-hours post-last dose analyzed by western blotting. Individual tumor BCL6 levels are shown in a scatter plot, mean is represented by the bar, determined by densitometry, normalized to GAPDH loading controls, and shown as a percentage of vehicle. Percent BCL6 degradation (%) relative to vehicle is shown above each arm. Statistical analyses were performed using 2-way ANOVA: p<0.0001 (****). Error bars represent standard error of the mean (±SEM).
# DLBCL-derived cell lines = assay: Nine-day cell growth inhibition assay (CellTiter-Glo); assay type: cell-based; conditions: GCB lines OCI-Ly1, OCI-Ly7, SU-DHL-4, SU-DHL-6 and ABC lines SU-DHL-2, OCI-Ly10; 9 days; top dose 30 nM; concentration dependent
# Protocol: Antiproliferative effects of Compound A on DLBCL-derived cell lines were tested. Nine-day cell growth inhibition assays were conducted using GCB lines OCI-Ly1, OCI-Ly7, SU-DHL-4 and SU-DHL-6 (FIG. 3A), and ABC lines SU-DHL-2 and OCI-Ly10 (FIG. 3B) dosed with a 7-point 3-fold serial dilution of Compound A at a top dose of 30 nM. On days 3 and 6-7, samples were split to new 48-well plates for re-treatment, and 20% to a 96-well plate to measure cell viability using CellTiter-Glo (CTG). Split cells in the 48-well plates were retreated and cultured out to day 9, when 20% of each sample was analyzed by CTG. Dose response was plotted as a percentage of vehicle (DMSO) control (FIG. 3A and FIG. 3B). Graphs are representative of at least two independent proliferation assays per cell line.
# BCL6 protein [1] = target: T1, BCL6 protein (Homo sapiens, UniProt P41182); assay: Tumor lysate BCL6 protein levels in OCI-Ly7 xenograft (western blotting); assay type: in vivo, mice; design: from tissue; host or cells: subcutaneous xenograft tumors of OCI-Ly1, OCI-Ly7, SU-DHL-2 or OCI-Ly10 cells in mice; conditions: 16-hours post-last dose (FIG. 8C)
# Protocol: (§2) Mice bearing subcutaneous tumors were orally (po) administered vehicle or Compound A at 1, 3, 10, or 30 mg/kg daily for 13 days (qd×13). Dosing began with tumors at an average of 130 mm^3. […] FIG. 8C depicts tumor lysate BCL6 protein levels 16-hours post-last dose analyzed by western blotting. Individual tumor BCL6 levels are shown in a scatter plot, mean is represented by the bar, determined by densitometry, normalized to GAPDH loading controls, and shown as a percentage of vehicle. Percent BCL6 degradation (%) relative to vehicle is shown above each arm. Statistical analyses were performed using 2-way ANOVA: p<0.0001 (****). Error bars represent standard error of the mean (±SEM).
# OCI-Ly7 = assay: Tumor growth of DLBCL cell line derived xenograft model OCI-Ly7; assay type: in vivo, mice; conditions: po 1, 3, 10 or 30 mg/kg daily for 13 days (qd×13), dosing dependent
# Protocol: as §2
# SU-DHL-2 = assay: Tumor growth of DLBCL cell line derived xenograft model SU-DHL-2; assay type: in vivo, mice; conditions: SU-DHL-2 xenograft, po 3, 10 or 30 mg/kg bid×27 or 30 mg/kg qd×27; dosing dependent
# Protocol: as §2, with “at” for “at 1,”, “mg/kg bi-daily for 27 days (bid×27) or 30 mg/kg” for “mg/kg”, “27” for “13”, “(qd×27).” for “(qd×13).”, “180” for “130”, “9C” for “8C”
# BCL6 protein [2] = target: T1, BCL6 protein; assay: Tumor lysate BCL6 protein levels in SU-DHL-2 xenograft (western blotting); assay type: in vivo, mice; design: from tissue; host or cells: subcutaneous xenograft tumors of OCI-Ly1, OCI-Ly7, SU-DHL-2 or OCI-Ly10 cells in mice; conditions: 16-hours post-last dose
# Protocol: as §2, with “at” for “at 1,”, “mg/kg bi-daily for 27 days (bid×27) or 30 mg/kg” for “mg/kg”, “27” for “13”, “(qd×27).” for “(qd×13).”, “180” for “130”, “9C” for “8C”
# BCL6 protein [3] = target: T1, BCL6 protein; assay: Tumor lysate BCL6 protein levels in OCI-Ly1 xenograft tumor tissue (western blotting, densitometry); assay type: in vivo, mice; design: from tissue; host or cells: subcutaneous xenograft tumors of OCI-Ly1, OCI-Ly7, SU-DHL-2 or OCI-Ly10 cells in mice
# Protocol: Tumor lysate BCL6 protein levels in OCI-Ly1 cell line xenograft tumor tissue was measured following a treatment time-course with Compound A. A single dose of Compound A was orally administered in a vehicle of 40% hydroxypropyl-b-cyclodextrin in pH 3.0 citrate buffer when tumors reached 200-400 mm^3. Tumors were harvested at the indicated timepoints. Tumor tissue lysates were analyzed using western immunoblotting procedures and densitometry. BCL6 levels are normalized to a GAPDH loading control and presented as a percentage (%) of the average of BCL6 levels in the vehicle control group. Percent BCL6 degradation (%) relative to vehicle is shown above each arm. Cells (1×10^7 cells in 50% matrigel+50% RMPI-1640 (phenol red-free)/100 μl/mouse) were implanted on the right flank subcutaneously.
# as §1
smiles,measurement,setting,value
"CNC(=O)COc1cc2cc(Nc3nc(N4CCC(O[C@H]5C[C@H](N6CCC(c7ccc8c(c7F)CN(C7CCC(=O)NC7=O)C8=O)CC6)C5)CC4)ncc3Cl)ccc2n(C(C)C)c1=O (some centres unmarked) [Compound A, 2-({6-[(5-chloro-2-{4-[(1r,3r)-3-{4-[2-(2,6-dioxopiperidin-3-yl)-4-fluoro-1-oxo-2,3-dihydro-1H-isoindol-5-yl]piperidin-1-yl}cyclobutoxy]piperidin-1-yl}pyrimidin-4-yl)amino]-2-oxo-1-(propan-2-yl)-1,2-dihydroquinolin-3-yl}oxy)-N-methylacetamide]",Change in mean tumor volume,LY3148,tumor regressions
same,Tumor growth,"OCI-Ly1; po 1, 3, 10 or 30 mg/kg daily for 22 days (qd×22)",inhibits the tumor growth
same,Tumor growth,"OCI-Ly1; po 1, 3 or 10 mg/kg bi-daily for 23 days (bid×23)",inhibits the tumor growth
same,DLBCL cell growth (antiproliferative effect),DLBCL-derived cell lines,significant decrease on DLBCL cells growth
same,Tumor lysate BCL6 protein level,BCL6 protein [1],dose-dependent degradation of BCL6 protein
same,Tumor growth,OCI-Ly7,inhibits the tumor growth
same,Tumor growth,SU-DHL-2,inhibits the tumor growth
same,Tumor lysate BCL6 protein level,BCL6 protein [2],dose-dependent degradation of BCL6 protein
same,Tumor lysate BCL6 protein level,"BCL6 protein [3]; bid×23, 16-hours post-last dose (FIG. 7C)",dose-dependent degradation of BCL6 protein
same,Time BCL6 protein was kept down,BCL6 protein [3]; single oral dose (FIG. 5),up to 36 hours
same,Tumor lysate BCL6 protein level,"BCL6 protein [3]; single oral dose, time-course (FIG. 5)",degraded BCL6 protein rapidly
